Laboratory results as given in US20260265244A1, “HETEROCYCLIC COMPOUNDS AS STING ANTAGONISTS” (Boehringer Ingelheim International GmbH, priority 2022, published 2026).

How the values were obtained:
human STING WT (R232) = molecular target: T1, human STING WT (R232) (Homo sapiens, UniProt Q86WV6, H232R); experiment: Human STING HTRF binding assay (competitive, Cisbio 64BDSTGPEG)
T1 construct: purchased Cisbio 64BDSTGPEG
Summary of the method: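 Competitive HTRF: 6His-tagged human STING WT R232 binding domain (residues 138-379) with anti-6His Cryptate antibody and d2-labeled STING ligand, 180 min at room temperature, 1% DMSO, 8 concentrations from 10 μM or 1 μM top in ~1:5 steps. HTRF ratios were calibrated to a cGAMP standard curve and IC50 obtained by 4-parameter logistic fit.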

[1] = test system: STING inhibition in human whole blood (IFNα2α production); experiment: Human whole blood assay (HWBA): cGAMP-stimulated IFNα2α production; format: cell-based; conditions: Homo sapiens
Summary of the method: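 Na-citrate human whole blood from ≥3 healthy donors, preincubated 60 min at room temperature with compound (8 concentrations, top 10 μM, ~1:5 steps, 0.1% DMSO), then stimulated with cGAMP and incubated 22 h at 37 °C. Plasma IFNα2α measured by MSD immunoassay; % control versus stimulated/unstimulated wells, IC50 by 4-parameter logistic fit.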

T1 sequence (Q86WV6 138-379 H232R): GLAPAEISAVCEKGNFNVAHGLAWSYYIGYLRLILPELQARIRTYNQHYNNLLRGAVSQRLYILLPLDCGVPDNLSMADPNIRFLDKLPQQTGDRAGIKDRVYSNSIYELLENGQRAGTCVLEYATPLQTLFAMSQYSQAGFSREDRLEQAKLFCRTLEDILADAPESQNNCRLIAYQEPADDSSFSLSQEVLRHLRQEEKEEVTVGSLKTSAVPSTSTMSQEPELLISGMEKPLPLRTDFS

IC50 (human STING WT (R232))	IC50 [1]	Compound
3.8 nM	31 nM	CCc1nc2nn(C)cc2cc1-c1nc(-c2cccc3nn(C[C@H](F)c4ccccc4)cc23)c(C2CC2)n1C [Example 107, 4-(5-cyclopropyl-2-{6-ethyl-2-methyl-2H-pyrazolo[3,4-b]pyridin-5-yl}-1-methyl-1H-imidazol-4-yl)-2-[(2R)-2-fluoro-2-phenylethyl]-2H-indazole]
16.7 nM	140 nM	CNCc1nc2nn(C)cc2cc1-n1nc(-c2cccc3nn(C[C@H](O)c4ccccc4)cc23)c(C(C)C)c1C [Example 42, (1R)-2-[4-(5-methyl-1-{2-methyl-6-[(methylamino)methyl]-2H-pyrazolo[3,4-b]pyridin-5-yl}-4-(propan-2-yl)-1H-pyrazol-3-yl)-2H-indazol-2-yl]-1-phenylethan-1-ol]
14.6 nM	130 nM	CNC(=O)CO[C@@H](Cn1cc2c(-c3nn(-c4cc5cn(C)nc5nc4C)c(C)c3C(C)C)cccc2n1)c1ccccc1 [Example 36, 2-[(1R)-2-[4-(1-{2,6-dimethyl-2H-pyrazolo[3,4-b]pyridin-5-yl)-5-methyl-4-(propan-2-yl)-1H-pyrazol-3-yl)-2H-indazol-2-yl]-1-phenylethoxy]-N-methylacetamide]
28.6 nM	190 nM	Cc1c(C(C)C)c(-c2cccc3nn(C[C@H](O)c4ccccc4)cc23)nn1-c1cc2cn(C)nc2nc1C1CCC1 [Example 53, (1R)-2-[4-(1-{6-cyclobutyl-2-methyl-2H-pyrazolo[3,4-b]pyridin-5-yl}-5-methyl-4-(propan-2-yl)-1H-pyrazol-3-yl)-2H-indazol-2-yl]-1-phenylethan-1-ol]
25.2 nM	750 nM	Cc1c(C(C)C)c(-c2cccc3nn(C[C@H](O)c4ccccc4)cc23)nn1-c1cc2cn(C)nc2nc1C1CCCN1 (stereo partly drawn) [Example 111, (1R)-2-(4-{5-Methyl-1-[2-methyl-6-(pyrrolidin-2-yl)-2H-pyrazolo[3,4-b]pyridin-5-yl]-4-(propan-2-yl)-1H-pyrazol-3-yl}-2H-indazol-2-yl)-1-phenylethan-1-ol]
16.9 nM	320 nM	Cc1nc2nn(C)cc2cc1-n1nc(-c2cccc3nn(CCc4ccc(OCCN(C)C)cc4)cc23)c(C(C)C)c1C [Example 65, [2-(4-{2-[4-(1-{2,6-dimethyl-2H-pyrazolo[3,4-b]pyridin-5-yl}-5-methyl-4-(propan-2-yl)-1H-pyrazol-3-yl)-2H-indazol-2-yl]ethyl}phenoxy)ethyl]dimethylamine]
3.2 nM	28 nM	Cc1c(C(C)C)c(-c2cccc3nn(C[C@H](O)c4ccccc4)cc23)nn1-c1cc2cn(C)nc2nc1CO [Example 106, (1R)-2-(4-{1-[6-(hydroxymethyl)-2-methyl-2H-pyrazolo[3,4-b]pyridin-5-yl]-5-methyl-4-(propan-2-yl)-1H-pyrazol-3-yl}-2H-indazol-2-yl)-1-phenylethan-1-ol]
17.6 nM	400 nM	CCc1nc2nn(C)cc2cc1-c1nc(-c2cccc3nn(C[C@H](F)c4ccc(Cl)cc4)cc23)c(C2CC2)n1C [Example 72, 2-[(2R)-2-(4-chlorophenyl)-2-fluoroethyl]-4-(5-cyclopropyl-2-{6-ethyl-2-methyl-2H-pyrazolo[3,4-b]pyridin-5-yl}-1-methyl-1H-imidazol-4-yl)-2H-indazole]
15.8 nM	54 nM	Cc1nc2nn(CCCC#N)cc2cc1-n1nc(-c2cccc3nn(C[C@H](O)c4ccccc4)cc23)c(C(C)C)c1C [Example 2, 4-[5-(3-{2-[(2R)-2-hydroxy-2-phenylethyl]-2H-indazol-4-yl}-5-methyl-4-(propan-2-yl)-1H-pyrazol-1-yl)-6-methyl-2H-pyrazolo[3,4-b]pyridin-2-yl]butanenitrile]
16.8 nM	170 nM	Cc1c(C(C)C)c(-c2cccc3nn(C[C@H](O)c4ccccc4)cc23)nn1-c1cc2cn(C)nc2nc1C1(F)CC1 [Example 51, (1R)-2-(4-{1-[6-(1-fluorocyclopropyl)-2-methyl-2H-pyrazolo[3,4-b]pyridin-5-yl]-5-methyl-4-(propan-2-yl)-1H-pyrazol-3-yl}-2H-indazol-2-yl)-1-phenylethan-1-ol]
